“Also recorded” adds a separate entry of the source.
Experiments:
uterus = experiment: In vivo estrogenic activity, uterine weight; design: species or system rat; details: female rats; for estrogenic activity in terms of uterine weight: compound alone
Procedure: Rats that were administered the vehicle alone served as controls.

[1] = Metabolic stability in human liver microsomes; details: 1 μM substrate, 0.5 mg/mL microsomes
Procedure: Each substrate or reference control was dissolved at a concentration of 10 mM in DMSO, from which a 5 μM spiking solution was prepared by dilution in water. Substrates (1 μM) were incubated in the presence of human liver microsomes (Xenotech LLC, Kansas City Mo.) at 0.5 mg/mL fortified with an NADPH regenerating system at 37° C. and pH 7.4. The NADPH regenerating system consisted of glucose-6-phosphate dehydrogenase (1 units/mL) in 0.05M K2HPO4. Duplicate incubations were performed in 96-well polypropylene cluster tubes in a final volume of 250 μL per reaction. At 0, 2, 4, 6, 10, 30, and 60 minutes a stop solution (300 μL acetonitrile) was added to aliquots of the reaction mixture. Precipitated protein was removed by centrifugation (3000 rpm for 15 minutes) and the supernatants were transferred to clean 96-well plates for analysis.
The samples were injected onto a Phenomenex Luna hexylphenyl 50×2 mm i.d. 5 uM, column fitted with a guard column. An isocratic mobile phase consisting of 50% acetonitrile and 0.1% formic acid in water was used at a flow rate of 0.3 mL/min. The protonated molecular ion (M+H)^+ of the analyte was monitored by MDS/Sciex API 4000QTrap triple quadrupole mass spectrometer using electrospray positive mode ionization with a temperature of 500° C. and a spray voltage of 4000V. Total analysis time was 1.5 min per sample.
Metabolic stability was defined as the amount of substrate metabolized by the incubation with hepatic microsomes and expressed as a percentage of the initial amount of substrate (% remaining) based on peak area. Initial substrate concentration for each analyte was 1 μM. The initial peak area of each substrate was determined at time zero and metabolic stability was assessed based on the change in analyte peak area from time 0 min to a single fixed timepoint for each sample (2-60 min, representative timepoints are shown in Table 2 below).

[2] = test system: TRAP positive multinucleated osteoclasts; experiment: TRAP positive multinucleated osteoclasts from bone marrow cells; type: cell-based, rat; details: RANKL and GMCSF, 12 days
Procedure: FIG. 7: Effect of the indicated compounds on TRAP positive multinucleated osteoclasts. Bone marrow cells from rat femur was cultured in Alpha MEM+10% csFBS without phenol red in the presence or absence of 30 ng/ml RANKL and 10 ng/ml GMCSF. The cells were treated for 12 days and were stained for tartarate resistant acid phosphatase activity (TRAP) and multinucleated osteoclasts were counted.
Bone marrow cells isolated from rat femur were cultured in Alpha MEM without phenol red+10% sterile FBS without phenol red in the presence or absence of […] RANKL and 10 ng/ml GMCSF. The cells were treated for 12 days were stained for tartarate resistant acid phosphatase activity (TRAP) positive multinucleated osteoclasts and were counted.

ER-α = target: T1, ER-α (Rattus norvegicus, UniProt P06211); experiment: ER-α transactivation, ERE-LUC in COS or 293 cells; type: cell-based; design: % estardiol activity, ER-α: dose or concentration left out as unconfirmed
T1 sequence (P06211 1-600): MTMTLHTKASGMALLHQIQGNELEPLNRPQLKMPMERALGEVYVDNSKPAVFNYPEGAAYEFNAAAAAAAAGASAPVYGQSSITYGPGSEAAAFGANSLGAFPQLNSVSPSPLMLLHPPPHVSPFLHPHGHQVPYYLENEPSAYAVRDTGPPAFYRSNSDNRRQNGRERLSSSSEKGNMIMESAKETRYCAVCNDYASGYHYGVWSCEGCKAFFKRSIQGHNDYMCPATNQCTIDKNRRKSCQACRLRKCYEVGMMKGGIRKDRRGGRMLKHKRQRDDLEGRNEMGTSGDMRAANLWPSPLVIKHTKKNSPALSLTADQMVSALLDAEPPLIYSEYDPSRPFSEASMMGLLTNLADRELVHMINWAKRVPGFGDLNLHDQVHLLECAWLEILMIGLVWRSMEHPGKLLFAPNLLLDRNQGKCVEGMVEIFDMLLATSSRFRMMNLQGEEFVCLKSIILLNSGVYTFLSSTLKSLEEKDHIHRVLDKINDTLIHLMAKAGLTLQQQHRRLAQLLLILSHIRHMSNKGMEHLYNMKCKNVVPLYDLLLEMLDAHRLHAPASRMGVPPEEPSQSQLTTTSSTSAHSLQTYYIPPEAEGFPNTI
Procedure: FIG. 1: Effects of the indicated compounds on ER-α transactivation. COS or 293 cells plated in DME without phenol red+10% charcoal stripped fetal bovine serum (csFBS) at 90,000 cells per well of 24 well plates were transfected with 0.25 μg ERE-LUC, 0.02 μg CMV-LUC (Renilla) and 25 ng of ER-α by lipofectamine. Twenty four hours after transfection, the cells were treated as indicated in the figure, harvested 48 hrs after transfection and were assayed for firefly and renilla luciferase.
(§1) FIG. 5: Effect of the indicated compounds on ER-α transactivation. COS or 293 cells plated in DME without phenol red+10% csFBS at 90,000 cells per well of a 24 well plate were transfected with 0.25 μg ERE-LUC, 0.02 μg CMV-LUC (Renilla) and 5 ng of ER-α by lipofectamine. Twenty four hours after transfection, the cells were treated as indicated in the figure, harvested 48 hrs after transfection and were assayed for firefly and renilla luciferase.
as §1, with “FIG. 9:” for “FIG. 5:”, “csFBS” for “csFBS at 90,000 cells”, “and 25” for “and 5”
Also 25 ng of ER-α (FIGS. 1, 5, and 9), 50 ng of ER-β (FIGS. 2, 6 and 10) or 12.5 ng of AR (FIG. 3) were introduced by lipofectamine. All the receptors were cloned from rat tissue into the PCR3.1 vector backbone. […] Cells were harvested 48 hrs after transfection, and assayed for firefly and Renilla luciferase activity.
Also 25 ng of ER-α), 50 ng of ER-β or 12.5 ng of AR were introduced by lipofectamine. All the receptors were cloned from rat tissue into the PCR3.1 vector backbone. […] Cells were harvested 48 hrs after transfection, and assayed for firefly and Renilla luciferase activity.

ER-β = target: T2, ER-β (Rattus norvegicus, UniProt Q62986); experiment: ER-β transactivation, ERE-LUC in COS or 293 cells; type: cell-based
T2 construct: expressed in transfected cells; host or cells: COS or 293 cells
Procedure: as §1, with “FIG. 2:” for “FIG. 5:”, “on ER-β” for “on ER-α”, “and 50” for “and 5”, “of ER-β” for “of ER-α”
as §1, with “FIG. 6:” for “FIG. 5:”, “on ER-β” for “on ER-α”, “and 50” for “and 5”, “of ER-β” for “of ER-α”, “and” for “and were”
as §1, with “FIG. 10:” for “FIG. 5:”, “on ER-β” for “on ER-α”, “in DME+10%” for “in DME without phenol red+10%”, “and 50” for “and 5”, “of ER-β” for “of ER-α”
(§2) All the receptors were cloned from rat tissue into the PCR3.1 vector backbone. […] Cells were harvested 48 hrs after transfection, and assayed for firefly and Renilla luciferase activity.
as §2

[3] = test system: pS2 (gene encoding the trefoil peptides) in MCF-7 cells; experiment: pS2 gene expression in MCF-7 cells (realtime RT-PCR); type: cell-based; details: 16 hrs
Procedure: MCF-7 cells were plated at 500,000 cells per well of a 6 well plate. RNA was isolated and the message levels of pS2 (gene encoding the trefoil peptides) measured and normalized to 18S ribosomal RNA by realtime polymerase chain reaction (rtPCR).
FIG. 11: Agonistic activity of the indicated compounds in MCF-7 cells. MCF-7 cells were plated at 500,000 cells per well of a 6 well plate. RNA was isolated and the message levels of pS2 gene measured and normalized to 18S ribosomal RNA by realtime rtPCR.
MCF-7 cells were plated at 500,000 cells per well of a 6 well plate. The cells were serum starved for 3 days and then were treated as above for 16 hrs. RNA was isolated and gene expression levels assessed by realtime RT-PCR, following normalization to 18S ribosomal RNA.

PC-3 cells = experiment: Androgen independent prostate cancer cell growth; type: cell-based; details: for PC-3 growth inhibition, qualitative grading: in vitro, data not shown; for inhibition at 10 µM: Homo sapiens, PC-3, 72 hrs
Procedure: PC-3 cells were plated in RPMI+10% csFBS at 6000 cells per well of a 96 well plate. Medium was changed to RPMI+1% csFBS without phenol red and then treated for 72 hrs with increasing concentrations of SERMs.
The prostate cancer cell line PC-3 was plated in RPMI+10% csFBS at 6000 cells per well of a 96 well plate. Medium was changed to RPMI+1% csFBS without phenol red and cells were treated for 72 hrs with increasing concentrations of SERMs.
PC-3 growth inhibition was determined qualitatively, in vitro, and represented as a grading system based on the ability of the SERMs to inhibit growth. The number −4 is for compounds that induced 100% growth inhibition at 1 uM, −3 for compounds that inhibit growth by about 75-90%, −2 for about 50-70% and −1 for inhibition less than 50% growth.

T2 sequence (Q62986 whole entry): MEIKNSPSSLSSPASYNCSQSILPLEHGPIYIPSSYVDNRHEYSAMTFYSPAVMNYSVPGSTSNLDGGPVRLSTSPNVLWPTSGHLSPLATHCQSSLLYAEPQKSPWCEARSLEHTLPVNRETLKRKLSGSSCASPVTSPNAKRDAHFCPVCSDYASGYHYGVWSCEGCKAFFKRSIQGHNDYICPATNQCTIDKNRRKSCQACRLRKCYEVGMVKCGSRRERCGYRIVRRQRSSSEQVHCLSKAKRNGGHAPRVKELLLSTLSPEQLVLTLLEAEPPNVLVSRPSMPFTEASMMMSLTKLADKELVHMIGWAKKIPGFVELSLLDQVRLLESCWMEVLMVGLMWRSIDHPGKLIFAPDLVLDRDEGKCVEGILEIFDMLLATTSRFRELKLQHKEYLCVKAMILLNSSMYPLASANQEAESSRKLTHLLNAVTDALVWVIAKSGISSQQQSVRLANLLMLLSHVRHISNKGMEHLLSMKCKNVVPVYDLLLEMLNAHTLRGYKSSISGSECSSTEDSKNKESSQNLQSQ

Q: For O=C(c1ccc(O)cc1)N(c1ccc(O)cc1)c1ccc(O)cc1 [Compound 3a, 4-hydroxy-N,N-bis-(4-hydroxyphenyl)-benzamide], which “estrogenic activity in terms of uterine weight” value (“estrogenic activity in terms” below) (uterus) is on record?
A: exhibited estrogenic activity, in vivo

Q: What about the “% Remaining 0 min” value [1] of the same compound?
A: 100%

Q: What about the “% Remaining 10 min” value [1] of the same compound?
A: 140%

Q: What about the “% Remaining 30 min” value [1] of the same compound?
A: 118%

Q: What about the “% Remaining 60 min” value [1] of the same compound?
A: 103%

Q: What about the “osteoclast differentiation / osteoclast activity” value [2] of the same compound?
A: suppressed osteoclasts

Q: What about the “% estardiol activity, ER-α” value (ER-α) of the same compound?
A: 49.5%

Q: And the “ER-β LUC expression, compound alone” value (ER-β; COS or 293 cells)?
A: most potent in stimulating ER-β

Q: Which “estrogenic activity in terms” value (uterus) does the source give for O=C(c1cccc(O)c1)N(c1ccccc1)c1ccccc1 [Compound 3f, 3-hydroxy-N,N-diphenyl-benzamide] here?
A: exhibited estrogenic activity, in vivo

Q: What about the pS2 expression [3] of the same compound?
A: increased pS2 expression levels

Q: For O=C(c1ccc(F)cc1)N(c1ccc(O)cc1)c1ccc(O)cc1 [Compound 3k, N,N-bis(4-hydroxyphenyl)-4-fluoro-benzamide], which “% Remaining 0 min” value [1] is on record?
A: 100%

Q: What about the “% Remaining 10 min” value [1] of the same compound?
A: 119%

Q: What about the “% Remaining 30 min” value [1] of the same compound?
A: 120%

Q: And the “% Remaining 60 min” value [1]?
A: 94%

Q: What about the EC50 (ER-α; ER alpha agonists) of the same compound?
A: 0.012 µM

Q: Which “PC-3 growth inhibition, qualitative grading” value (“PC-3 growth inhibition” for short) (PC-3 cells) does the source give for O=C(c1ccccc1)N(c1ccccc1)c1ccc(OCCN2CCCCC2)cc1 [Compound 4b, N-(phenyl)-N-[4-(2-piperidin-1-ylethoxy)-phenyl]-benzamide] here?
A: −1 (−1 for inhibition less than 50% growth)

Q: For Cl.O=C(c1ccc(OCCN2CCCCC2)cc1)N(c1ccccc1)c1ccc(O)cc1 [Compound 4e, N-(4-hydroxyphenyl)-N-phenyl-[4-(2-piperidin-1-ylethoxy)]-benzamide hydrochloride], which “estrogenic activity in terms” value (uterus) is on record?
A: exhibited no estrogenic, or anti-estrogenic activity in uterus

Q: And the “PC-3 growth inhibition” value (PC-3 cells)?
A: −1 (−1 for inhibition less than 50% growth)

Q: With O=C(c1ccc(OCCN2CCCCC2)cc1)N(c1ccc(O)cc1)c1ccc(F)cc1 [Compound 4g, N-(4-fluorophenyl)-N-[4-hydroxyphenyl]-[4-(2-piperidin-1-ylethoxy)]-benzamide] as the compound, how does the “estrogenic activity in terms” value (uterus) read?
A: exhibited estrogenic activity, in terms of increased uterine weight; also recorded: exhibited estrogenic activity, in vivo

Q: What about the “uterine weight increase, with ICI-182,780” value (uterus; with ICI-182,780) of the same compound?
A: ICI-182,780 reversed 4a and 4g effects on uterine weight increase

Q: And the “uterine weight, coadministered with estrogen” value (uterus; with estrogen)?
A: an increase in uterine weight was observed

Q: Which results are given for Cl.Cl.O=C(c1ccc(OCCN2CCCCC2)cc1)N(c1ccc(F)cc1)c1ccc(OCCN2CCCCC2)cc1 [Compound 4r, N-(4-fluorophenyl)-N-[4-(2-piperidin-1-ylethoxy)-phenyl]-[4-(2-piperidin-1-yl-ethoxy)]-benzamide dihydrochloride]?
A: inhibition at 10 µM (PC-3 cells): 100%; PC-3 growth inhibition, qualitative grading (PC-3 cells): −4 (The number −4 is for compounds that induced 100% growth inhibition at 1 uM)

Q: Which inhibition at 10 µM (PC-3 cells) does the source give for Cl.Cl.O=C(c1ccc(OCCN2CCCCC2)cc1)N(c1ccccc1)c1ccc(OCCN2CCCCC2)cc1 [Compound 4u, N-[4-(2-piperidin-1-ylethoxy)-phenyl]-N-phenyl-[4-(2-piperidin-1-ylethoxy)]-benzamide dihydrochloride] here?
A: 100%

Q: And the “PC-3 growth inhibition” value (PC-3 cells)?
A: −3 (−3 for compounds that inhibit growth by about 75-90%)

Q: What about the “% estardiol activity, ER-α” value (ER-α) of the same compound?
A: 12.8%

Q: With CCCc1ccc(C(=O)N(c2ccc(O)cc2)c2ccc(O)cc2)cc1 [Compound 10l, N,N-bis(4-hydroxyphenyl)-4-propylbenzamide] as the compound, how does the “% estardiol activity, ER-α” value (ER-α) read?
A: 32%

Q: What about the EC50 (ER-β) of the same compound?
A: 0.027 µM

Reference: patent US8158828B2, “Nuclear receptor binding agents” (priority 2005, dated 2012)
